The target of one assay is T1, human M4R (Homo sapiens, UniProt P08173).
T1 construct: host or cells: HEK293 (CRL-1573, ATCC), transient
T1 sequence (P08173 1-479): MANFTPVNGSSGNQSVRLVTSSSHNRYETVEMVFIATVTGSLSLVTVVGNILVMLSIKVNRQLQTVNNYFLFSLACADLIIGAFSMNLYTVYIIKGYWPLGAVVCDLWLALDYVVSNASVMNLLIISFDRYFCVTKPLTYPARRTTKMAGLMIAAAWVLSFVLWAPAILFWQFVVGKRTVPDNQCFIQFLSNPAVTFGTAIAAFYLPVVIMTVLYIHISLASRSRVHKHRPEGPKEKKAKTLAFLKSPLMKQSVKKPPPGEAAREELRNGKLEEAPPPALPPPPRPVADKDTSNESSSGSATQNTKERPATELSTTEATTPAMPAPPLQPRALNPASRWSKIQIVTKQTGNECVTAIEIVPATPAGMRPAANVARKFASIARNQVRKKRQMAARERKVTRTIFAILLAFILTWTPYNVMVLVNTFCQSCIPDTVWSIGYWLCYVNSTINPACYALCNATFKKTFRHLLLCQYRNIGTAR
The assay is described as follows: [3H]Scopolamine radioligand competition binding at M4R. As to the method: (§1) Radioligand Competition Binding: Radioligand competition binding assays were conducted using membranes collected from transiently transfected HEK293 cells (P<20 from a procured stock, CRL-1573, ATCC, Manassas, Va., USA) as previously described (Chen, Y., et al. Drug Test Anal 11, 990-998). Briefly, cells ˜90% confluent in 10 cm plates were transfected with 5 μg human M1R, M2R, M3R, M4R or […] cDNA (cDNA resource center, Bloomsburg, Pa., USA) using a lipid-based method (LipoD293 reagent, SignaGen Laboratories, Rockville, Md., USA). Membranes were collected by centrifugation about 48 hours later and stored at −80° C. until used. […] After a 90-minute incubation at room temperature on a shaker, contents from the plates were rapidly filtered through GF/B fiberglass filter mats, pre-soaked with ice cold 50 mM Tris buffer (pH 7.4), using a Microbeta Filtermat-96 cell harvester (Perkin Elmer, Waltham, Mass., USA). Approximately 200 mL of ice cold, 50 mM Tris buffer was then vacuumed through filter mats to wash away unbound radioligand. Filter mats were dried on a hot plate and soaked in Betaplate (Perkin Elmer, Waltham, Mass., USA) scintillation fluid in plastic bags. Bags were sealed and placed in cassettes. Radioactivity was measured in a Microbeta2 Microplate Counter (Perkin Elmer, Waltham, Mass., USA), and counts per minute corresponding to each well on the plates were recorded. For full dose-response competition binding assays, increasing half-log unit concentrations of five unsubstituted PSCs were tested at M2Rs and M1Rs, with the same procedures described above.
(§2) Curve Fitting and Statistical Analyses: All data were analyzed by GraphPad 8.3.0 (San Diego, Calif., USA). Ki values were determined from data fit to both one- and two-site models. […] EC50 and IC50 values from functional assays were determined from data fit to the log(agonist) vs. response (three parameters) or log(inhibitor) vs. response (three parameters) model, respectively. Kb values were calculated from IC50 values using the Cheng-Prusoff equation with modification (see, e.g., Leff, P., and Dougall, I. G. (1993) Trends Pharmacol Sci 14, 110-112): Kb=IC50/((2+([A]/[A50])nH)1/nH−1)

The target of the next assay is T2, human M5R (Homo sapiens, UniProt P08912).
T2 construct: host or cells: HEK293 (CRL-1573, ATCC), transient
T2 sequence (P08912 1-532): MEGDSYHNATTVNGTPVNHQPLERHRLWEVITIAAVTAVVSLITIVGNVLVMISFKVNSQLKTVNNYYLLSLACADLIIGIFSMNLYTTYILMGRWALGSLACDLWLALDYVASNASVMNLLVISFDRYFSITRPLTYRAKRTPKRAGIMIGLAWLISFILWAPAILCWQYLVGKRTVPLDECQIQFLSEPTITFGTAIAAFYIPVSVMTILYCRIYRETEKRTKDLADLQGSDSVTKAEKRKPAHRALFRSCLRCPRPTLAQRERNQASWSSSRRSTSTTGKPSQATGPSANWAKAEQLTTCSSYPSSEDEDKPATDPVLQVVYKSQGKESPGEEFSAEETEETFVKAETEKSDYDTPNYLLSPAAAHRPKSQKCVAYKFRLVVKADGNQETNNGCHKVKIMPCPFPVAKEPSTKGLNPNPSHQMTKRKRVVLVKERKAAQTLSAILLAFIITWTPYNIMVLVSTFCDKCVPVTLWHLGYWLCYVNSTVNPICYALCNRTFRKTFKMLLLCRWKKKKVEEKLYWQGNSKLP
The assay is described as follows: [3H]Scopolamine radioligand competition binding at M5R. As to the method: as §1, §2

The target in another assay is T3, human M2R (Homo sapiens, UniProt P08172).
T3 construct: host or cells: HEK293 (CRL-1573, ATCC), transient
T3 sequence (P08172 1-466): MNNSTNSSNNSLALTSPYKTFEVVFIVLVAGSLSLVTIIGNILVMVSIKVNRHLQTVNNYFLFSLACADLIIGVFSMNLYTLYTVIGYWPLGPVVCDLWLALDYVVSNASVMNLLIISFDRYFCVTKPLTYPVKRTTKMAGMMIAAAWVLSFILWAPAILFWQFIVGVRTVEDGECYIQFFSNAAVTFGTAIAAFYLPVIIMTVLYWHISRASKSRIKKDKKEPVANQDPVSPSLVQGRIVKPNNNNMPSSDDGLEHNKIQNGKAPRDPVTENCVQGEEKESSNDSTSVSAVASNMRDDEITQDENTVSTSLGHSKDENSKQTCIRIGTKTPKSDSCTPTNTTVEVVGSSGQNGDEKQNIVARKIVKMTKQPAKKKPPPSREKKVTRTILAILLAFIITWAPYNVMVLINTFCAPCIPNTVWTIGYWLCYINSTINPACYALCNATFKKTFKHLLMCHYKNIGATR
Description: M2R cAMP signaling (forskolin-stimulated cAMP, oxotremorine agonist). The format is cell-based. As to the method: The M2R coupled to Gαi/o proteins, and its agonism functioned to decrease formation of the intracellular second messenger cyclic-adenosine-monophosphate (cAMP). […] In the presence of oxotremorine, an antagonist of the M2R would be expected to reverse the effects of the agonist, thereby increasing cAMP formation.
M2R cAMP Signaling: cAMP measurements were performed with the cAMP Hunter eXpress® CHRM2 CHO-K1 GPCR assay (Eurofins DiscoveRx, Fremont, Calif., USA) according to the manufacturer's protocol. Briefly, in the provided 96-well tissue culture-treated plate, 100 μL of human M2R expressing CHO-K1 cells were seeded in cell plating reagent and incubated (37° C., 5% CO2, 95% humidity) overnight. Cell plating reagent was replaced with 30 μL of cell assay buffer the next day. For agonist stimulation, cells were treated with increasing half-log unit concentrations of oxotremorine in the presence of 10 μM forskolin, followed by incubation for 30 minutes. A cAMP antibody, cAMP working detection solution and enzyme acceptor solution were then added according to the protocol, and the final chemiluminescent signals were detected by a Mithras LB 940 microplate reader (Berthold Technologies, Bad Wildbad, Germany). Antagonist tests were run by pretreating cells with increasing half-log unit concentrations of α-PHP, followed by incubation for one hour. Cells were then treated with EC80 concentration of oxotremorine (130 nM) and 10 μM forskolin. The same incubation and detection procedure used for agonist assays was used for the remaining steps.
as §2

Each structure is given as a SMILES string.

By Ki is commonly meant the equilibrium dissociation constant of an inhibitor or competing ligand from its target.

Consider `CCCCC(C(=O)c1ccccc1)N1CCCCC1` (stereo not drawn) [Compound (1), 1-phenyl-2-(piperidin-1-yl)hexan-1-one], for which the values for the Ki at human M4R and at human M5R were 1240 nM and 679 nM, respectively. The same compound gave a Kb at human M2R of 126 nM.

For `CCCCC(C(=O)c1ccccc1)N1CCCCCC1` (stereo not drawn) [Compound (2), 2-(azepan-1-yl)-1-phenylhexan-1-one], the Ki at human M4R was found to be 997 nM; on human M5R, 1040 nM. Besides, the Kb on human M2R was 158 nM.

Take `CCCCC(C(=O)c1ccccc1)N1CCCC1` (stereo not drawn) [α-PHP, 1-phenyl-2-(pyrrolidin-1-yl)hexan-1-one]: the Ki at human M4R is 1950 nM; at human M5R it was 1510 nM. The Kb at human M2R was 120 nM.

The record behind these values is US11912705B2, “Cathinone derivatives, pharmaceutical formulations, and methods” (The Corporation of Mercer University, priority 2020, dated 2024).
